Activity calls are given as the source filed them. The rule behind the calls is not given here.
Tests used:
[1] = target: T1, ATPase family AAA domain-containing protein 2B (Homo sapiens, UniProt Q9ULI0); assay: Binding affinity to human partial length ATAD2B (Q955 to R1082 residues) expressed in bacterial expression system by BROMOscan assay
T1 sequence (Q9ULI0 whole entry): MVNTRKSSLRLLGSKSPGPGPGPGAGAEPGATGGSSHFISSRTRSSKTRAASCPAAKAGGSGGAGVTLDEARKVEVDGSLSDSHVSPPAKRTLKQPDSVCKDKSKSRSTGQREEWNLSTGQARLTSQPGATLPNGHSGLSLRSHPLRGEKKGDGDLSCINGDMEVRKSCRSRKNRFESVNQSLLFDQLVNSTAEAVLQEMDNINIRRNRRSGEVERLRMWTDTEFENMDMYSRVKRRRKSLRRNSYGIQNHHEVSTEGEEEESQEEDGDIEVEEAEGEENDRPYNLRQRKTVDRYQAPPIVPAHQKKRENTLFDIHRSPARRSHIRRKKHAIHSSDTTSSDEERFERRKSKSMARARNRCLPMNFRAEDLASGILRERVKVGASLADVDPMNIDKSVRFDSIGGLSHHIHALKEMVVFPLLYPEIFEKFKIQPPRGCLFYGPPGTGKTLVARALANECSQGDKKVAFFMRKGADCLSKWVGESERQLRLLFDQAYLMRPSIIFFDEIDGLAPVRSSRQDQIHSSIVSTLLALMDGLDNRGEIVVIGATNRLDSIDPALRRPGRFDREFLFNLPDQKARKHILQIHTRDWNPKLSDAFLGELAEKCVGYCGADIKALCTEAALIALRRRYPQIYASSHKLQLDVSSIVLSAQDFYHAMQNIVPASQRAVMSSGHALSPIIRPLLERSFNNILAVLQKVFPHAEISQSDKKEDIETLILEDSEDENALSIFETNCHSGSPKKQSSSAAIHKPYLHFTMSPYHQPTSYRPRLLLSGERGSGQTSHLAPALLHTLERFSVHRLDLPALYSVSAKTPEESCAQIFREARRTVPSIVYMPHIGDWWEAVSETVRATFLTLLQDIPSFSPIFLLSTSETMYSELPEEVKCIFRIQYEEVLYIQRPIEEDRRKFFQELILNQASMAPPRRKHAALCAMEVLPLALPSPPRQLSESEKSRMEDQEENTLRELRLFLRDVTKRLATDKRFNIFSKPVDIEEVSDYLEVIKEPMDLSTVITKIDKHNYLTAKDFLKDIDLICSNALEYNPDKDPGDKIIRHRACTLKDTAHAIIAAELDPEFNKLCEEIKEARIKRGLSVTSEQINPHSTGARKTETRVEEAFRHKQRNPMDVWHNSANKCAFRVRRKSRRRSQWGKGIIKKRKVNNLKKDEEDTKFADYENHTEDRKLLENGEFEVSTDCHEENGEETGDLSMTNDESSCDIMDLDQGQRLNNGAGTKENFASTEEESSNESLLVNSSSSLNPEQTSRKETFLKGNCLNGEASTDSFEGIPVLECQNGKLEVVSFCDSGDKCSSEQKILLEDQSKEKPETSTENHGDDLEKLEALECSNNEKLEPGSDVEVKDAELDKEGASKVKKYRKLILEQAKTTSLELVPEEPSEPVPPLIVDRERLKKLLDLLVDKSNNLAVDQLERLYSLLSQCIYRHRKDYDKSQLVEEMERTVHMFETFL

[2] = Lipophilicity, logD of the compound at pH 7.4 by chromatographic method; type: physicochemical; conditions: buffer
[3] = target: Bromodomain-containing protein 2 (Homo sapiens, UniProt P25440); assay: Binding affinity to full length BRD2 BD1 in human HuT78 cell lysates incubated for 45 mins by liquid chromatography-mass spectrometry based chemoproteomic binding assay; type: subcellular
Chain of Bromodomain-containing protein 2 (P25440 whole entry, the tested form may be a part): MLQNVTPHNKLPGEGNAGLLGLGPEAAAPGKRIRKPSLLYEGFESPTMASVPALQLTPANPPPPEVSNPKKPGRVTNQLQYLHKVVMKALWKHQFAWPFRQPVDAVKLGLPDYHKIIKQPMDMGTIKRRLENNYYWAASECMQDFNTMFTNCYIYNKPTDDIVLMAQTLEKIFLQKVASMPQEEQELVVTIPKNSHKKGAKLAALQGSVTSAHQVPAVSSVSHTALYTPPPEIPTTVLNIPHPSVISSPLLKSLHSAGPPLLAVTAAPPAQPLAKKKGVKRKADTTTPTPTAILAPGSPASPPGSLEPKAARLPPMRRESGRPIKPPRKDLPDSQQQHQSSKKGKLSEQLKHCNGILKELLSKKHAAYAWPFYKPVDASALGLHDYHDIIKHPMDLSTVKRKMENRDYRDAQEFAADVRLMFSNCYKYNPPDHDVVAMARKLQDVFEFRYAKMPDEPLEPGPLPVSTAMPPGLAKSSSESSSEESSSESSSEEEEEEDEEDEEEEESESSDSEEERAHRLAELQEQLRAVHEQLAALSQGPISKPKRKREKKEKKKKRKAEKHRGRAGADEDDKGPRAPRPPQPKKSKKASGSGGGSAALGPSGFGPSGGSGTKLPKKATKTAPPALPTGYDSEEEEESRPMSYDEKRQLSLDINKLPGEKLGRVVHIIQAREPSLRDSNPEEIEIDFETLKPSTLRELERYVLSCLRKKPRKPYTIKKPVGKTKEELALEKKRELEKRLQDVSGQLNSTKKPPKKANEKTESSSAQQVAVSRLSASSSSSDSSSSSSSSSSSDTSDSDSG

Protein polybromo-1 = Protein polybromo-1 (Homo sapiens, UniProt Q86U86); assay: Binding affinity to human partial length PBRM1 bromodomain 5 (S645 to D766 residues) expressed in bacterial expression system by BROMOscan assay
Chain of Protein polybromo-1 (Q86U86 whole entry, the tested form may be a part): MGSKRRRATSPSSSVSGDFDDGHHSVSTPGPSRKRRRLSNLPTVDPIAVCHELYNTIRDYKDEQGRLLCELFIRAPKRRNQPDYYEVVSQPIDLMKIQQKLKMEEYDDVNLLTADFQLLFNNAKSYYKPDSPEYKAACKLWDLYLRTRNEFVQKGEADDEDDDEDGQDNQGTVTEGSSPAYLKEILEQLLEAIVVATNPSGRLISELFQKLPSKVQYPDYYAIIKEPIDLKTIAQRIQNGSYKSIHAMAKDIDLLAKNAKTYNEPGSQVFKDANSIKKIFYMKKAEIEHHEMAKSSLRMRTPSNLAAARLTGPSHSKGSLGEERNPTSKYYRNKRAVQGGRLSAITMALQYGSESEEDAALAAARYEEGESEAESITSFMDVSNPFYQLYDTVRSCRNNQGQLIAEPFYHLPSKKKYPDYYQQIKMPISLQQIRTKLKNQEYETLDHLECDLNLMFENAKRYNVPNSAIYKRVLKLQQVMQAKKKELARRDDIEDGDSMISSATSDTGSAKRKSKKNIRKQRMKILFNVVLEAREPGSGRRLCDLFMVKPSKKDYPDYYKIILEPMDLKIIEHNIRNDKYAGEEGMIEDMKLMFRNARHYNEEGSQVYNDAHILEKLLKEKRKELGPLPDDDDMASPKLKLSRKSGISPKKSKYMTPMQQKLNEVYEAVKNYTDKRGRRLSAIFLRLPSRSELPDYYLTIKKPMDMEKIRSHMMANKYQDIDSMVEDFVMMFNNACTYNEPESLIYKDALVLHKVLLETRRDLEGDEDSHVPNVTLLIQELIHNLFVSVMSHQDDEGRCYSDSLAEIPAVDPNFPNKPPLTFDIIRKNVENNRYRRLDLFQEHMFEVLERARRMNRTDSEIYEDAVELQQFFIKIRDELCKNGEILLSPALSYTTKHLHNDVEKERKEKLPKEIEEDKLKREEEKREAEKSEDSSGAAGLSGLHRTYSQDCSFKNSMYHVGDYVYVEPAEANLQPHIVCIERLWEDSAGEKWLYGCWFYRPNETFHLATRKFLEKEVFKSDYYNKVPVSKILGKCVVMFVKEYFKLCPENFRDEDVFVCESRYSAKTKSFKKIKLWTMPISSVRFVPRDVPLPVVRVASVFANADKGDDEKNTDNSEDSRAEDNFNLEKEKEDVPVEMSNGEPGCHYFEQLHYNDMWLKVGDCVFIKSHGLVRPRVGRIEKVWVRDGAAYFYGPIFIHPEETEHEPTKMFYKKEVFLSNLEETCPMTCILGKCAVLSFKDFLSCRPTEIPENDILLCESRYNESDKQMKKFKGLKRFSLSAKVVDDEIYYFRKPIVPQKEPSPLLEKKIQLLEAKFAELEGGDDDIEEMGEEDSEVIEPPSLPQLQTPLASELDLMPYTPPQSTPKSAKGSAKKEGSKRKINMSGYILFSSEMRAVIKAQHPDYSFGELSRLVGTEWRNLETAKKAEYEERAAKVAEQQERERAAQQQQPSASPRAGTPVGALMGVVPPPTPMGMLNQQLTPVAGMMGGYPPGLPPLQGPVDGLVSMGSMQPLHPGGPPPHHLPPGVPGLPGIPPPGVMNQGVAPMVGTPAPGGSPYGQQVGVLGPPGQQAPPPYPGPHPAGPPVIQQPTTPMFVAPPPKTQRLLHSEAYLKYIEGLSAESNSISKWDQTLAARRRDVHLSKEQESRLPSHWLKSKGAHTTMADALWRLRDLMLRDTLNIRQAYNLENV

[4] = target: Transcription initiation factor TFIID subunit 1 (Homo sapiens, UniProt P21675); assay: Binding affinity to full length TAF1 in human HuT78 cell lysates incubated for 45 mins by liquid chromatography-mass spectrometry based chemoproteomic binding assay; type: subcellular
Chain of Transcription initiation factor TFIID subunit 1 (P21675 whole entry): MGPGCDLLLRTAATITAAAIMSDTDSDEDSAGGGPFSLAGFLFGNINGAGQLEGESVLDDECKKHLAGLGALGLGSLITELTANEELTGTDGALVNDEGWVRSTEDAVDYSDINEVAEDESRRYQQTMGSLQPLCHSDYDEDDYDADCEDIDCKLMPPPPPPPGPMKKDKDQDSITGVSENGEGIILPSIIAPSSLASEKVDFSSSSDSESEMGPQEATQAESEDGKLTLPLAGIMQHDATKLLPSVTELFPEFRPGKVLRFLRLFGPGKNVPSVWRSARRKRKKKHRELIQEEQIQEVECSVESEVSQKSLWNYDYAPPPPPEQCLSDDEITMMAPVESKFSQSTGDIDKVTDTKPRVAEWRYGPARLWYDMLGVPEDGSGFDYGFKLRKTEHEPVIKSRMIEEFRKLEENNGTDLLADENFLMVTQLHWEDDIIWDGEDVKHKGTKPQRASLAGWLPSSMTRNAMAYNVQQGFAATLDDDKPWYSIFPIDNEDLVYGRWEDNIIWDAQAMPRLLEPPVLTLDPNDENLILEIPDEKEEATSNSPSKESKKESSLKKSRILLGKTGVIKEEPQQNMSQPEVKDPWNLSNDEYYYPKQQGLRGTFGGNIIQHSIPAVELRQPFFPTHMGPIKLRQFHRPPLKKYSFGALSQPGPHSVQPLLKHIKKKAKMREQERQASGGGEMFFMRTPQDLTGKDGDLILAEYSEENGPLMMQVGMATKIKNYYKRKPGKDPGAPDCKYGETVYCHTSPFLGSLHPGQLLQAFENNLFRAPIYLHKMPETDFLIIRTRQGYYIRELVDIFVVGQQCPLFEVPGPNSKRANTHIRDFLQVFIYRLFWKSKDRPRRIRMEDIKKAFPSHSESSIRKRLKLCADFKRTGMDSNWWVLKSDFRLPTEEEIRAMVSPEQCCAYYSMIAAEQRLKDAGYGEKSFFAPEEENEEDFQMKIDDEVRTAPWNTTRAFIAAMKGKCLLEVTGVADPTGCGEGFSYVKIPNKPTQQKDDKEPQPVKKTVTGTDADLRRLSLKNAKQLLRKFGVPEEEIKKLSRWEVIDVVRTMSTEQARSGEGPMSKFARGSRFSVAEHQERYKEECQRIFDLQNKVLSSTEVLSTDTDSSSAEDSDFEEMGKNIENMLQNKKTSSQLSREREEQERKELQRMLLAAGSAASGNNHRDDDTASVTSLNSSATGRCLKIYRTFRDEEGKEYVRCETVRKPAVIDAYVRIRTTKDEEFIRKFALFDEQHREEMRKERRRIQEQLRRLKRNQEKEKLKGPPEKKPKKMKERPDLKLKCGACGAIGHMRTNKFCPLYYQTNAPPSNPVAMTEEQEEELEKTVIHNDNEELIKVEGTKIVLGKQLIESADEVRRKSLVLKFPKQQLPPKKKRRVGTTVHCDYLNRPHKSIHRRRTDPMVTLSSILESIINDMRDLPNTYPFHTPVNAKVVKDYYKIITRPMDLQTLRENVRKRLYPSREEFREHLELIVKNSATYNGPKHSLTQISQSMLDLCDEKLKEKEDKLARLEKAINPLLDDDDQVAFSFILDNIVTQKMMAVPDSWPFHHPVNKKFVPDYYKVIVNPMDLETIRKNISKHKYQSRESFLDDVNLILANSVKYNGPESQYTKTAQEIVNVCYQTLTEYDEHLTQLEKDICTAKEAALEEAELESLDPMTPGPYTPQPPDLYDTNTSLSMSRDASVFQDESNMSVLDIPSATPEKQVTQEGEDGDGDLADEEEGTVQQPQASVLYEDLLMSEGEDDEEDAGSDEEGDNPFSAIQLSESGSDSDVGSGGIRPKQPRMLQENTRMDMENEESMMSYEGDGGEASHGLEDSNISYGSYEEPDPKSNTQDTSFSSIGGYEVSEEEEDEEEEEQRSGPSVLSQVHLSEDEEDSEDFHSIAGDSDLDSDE

[5] = Intrinsic clearance in mouse hepatocytes at 0.5 uM by LC-MS/MS analysis; type: ADME, cell-based, Hepatocyte
B cell = assay: Downregulation of IL-17F secretion in human B cells cocultured with human PBMC at 0.37 to 10 uM preincubated for 1 hr followed by anti-IgM and TCR stimulation and measured after 84 hrs by ELISA; type: functional, cell-based; conditions: dose microM 0.37-10, time 1.0 hrs

Kd [1]: 15.8 µM
chromatographic logD [2]: 3.99
Kd [3]: 0.00398 µM
Kd (Protein polybromo-1): 10 µM
IC50 [4]: > 10 µM
CLH [5]: 8.15 mL/min/g
SMILES: Cc1cc2c(-c3ccco3)cnc(N[C@@H]3CCN(C)C[C@H]3C(=O)NC3CCCCC3)c2[nH]c1=O [GSK789]
Activity (B cell): Active

Source: ChEMBL document CHEMBL4725292 (J Med Chem, 2020)
